Measurements as given in patent publication US20190365719A1, “COMBINATION TREATMENTS OF HSP90 INHIBITORS FOR ENHANCING TUMOR IMMUNOGENICITY AND METHODS OF USE THEREOF” (Massachusetts Institute of Technology, priority 2018, published 2019).

What was measured:
[1] = cited from earlier work
[2] = tested on: human peripheral blood mononuclear cells; experiment: RNA sequencing of ex vivo human peripheral blood mononuclear cells; assay type: cell-based; settings: 500 nM for 20 hrs
Protocol: Whole blood was collected into lithium-heparin tubes and processed with Histopaque-1077 (Sigma) to isolate peripheral blood mononuclear cells per supplier's instructions. After overnight culture in RPMI160 with 20% autologous plasma, ganetespib (500 nM) or an equal volume of solvent vehicle (DMSO 0.1% v/v) was added to duplicate dishes. Incubation was continued for 24 hours after which cells were collected by centrifugation, lysed in RLT buffer (Qiagen) and total RNA isolated using an RNeasy kit per manufacturer's instructions (Qiagen). Sequencing library preparation was performed by the Whitehead Genome Technology Core using standard Illumina protocols and TruSeq adapters. Single-end, 40 bp sequencing was performed on a HiSeq 2000 instrument. Adapter sequences were trimmed, and reads were aligned to […] using TopHat2 and rpkm values generated with Cufflinks. Differential expression analysis was performed with the Bioconductor package DEseq.
To evaluate the immunosuppressive effect of high level HSP90 inhibition in a more controlled fashion, freshly isolated human peripheral blood mononuclear cells were cultured in ganetespib (500 nM for 20 hrs.) and the effects on RNA expression genome-wide were measured (FIG. 2A).

immune-related genes = experiment: NanoString immune profiling of whole blood from breast cancer patients given ganetespib; assay type: in vivo, human; settings: 20-24 hours post intravenous drug administration, recommended Phase II dose
Protocol: Blood samples for gene expression analyses were obtained with informed consent from patients participating in an IRB-approved clinical trial coordinated by the Dana-Farber Cancer Institute, Boston, Mass. (DFCI 11-477, NCT01560416). All samples were processed and analyzed by collaborating investigators in an anonymous fashion to preserve patient confidentiality.
Gene expression measurements using Nanostring codesets were performed with NanoString XT GEx kits. Analyses were performed on total RNA from clinical samples or mouse tumor tissue following manufacturer's instructions. Briefly, 100 ng total RNA (measured by Qubit (Invitrogen)), was mixed with Capture and Reporter probe sets and hybridized for 16-20 hours at 65° C. prior to ramping down to hold at 4° C. Hybridized samples were processed on a Nanostring Prep Station according to manufacturer's instructions and then scanned with an FOV setting of 1100. All files (.rcc) were analyzed using nSolver v3.0 software.
As an approach to examine the impact of HSP90 compromise on the immune system in human cancer patients exposed to recommended dosing of an HSP90i, the RNA expression of immune-related genes in whole blood collected from 20 patients was profiled. […]

[3] = phase I, intravenous infusion days 1, 8 and 15, 4-weekly schedule

For `CC(C)c1cc(-c2n[nH]c(=O)n2-c2ccc3c(ccn3C)c2)c(O)cc1O` [Ganetespib], the “side effects / adverse effects” value ([1]; clinical use) is listed as “diarrhea, fatigue, nausea, and anorexia”, the “MTD as a combination therapy with crizotinib” value ([1]; days 1 and 8 of a 21-day cycle, phase II) is listed as 200 mg/m2 and the ocular toxicity ([1]; human, in vivo) is listed as “No ocular toxicity has been reported”. The “MTD as a monotherapy” value [1, 3] was 216 mg/m^2, the “highest dose with acceptable toxicity (RP2D)” value [1, 3] was 200 mg/m^2 and the “most downregulated Gene Ontology categories” value [2] was “immune-related pathways”. For the same compound, the “most upregulated Gene Ontology categories” value [2] was “RNA splicing and protein folding” and the “expression of immune-related genes in whole blood” value (immune-related genes) was “broad down-regulation of expression across diverse immune-related genes”.
